Values quoted from earlier work as cited in patent publication US8911790B2, “Solid composition containing a hypothiocyanite salt” (Alaxia SAS, priority 2011, dated 2014).

Settings: hypothiocyanite ion, instability of the species

half-life: less than 24 hours
SMILES: N#CSO [hypothiocyanite ion, hypothiocyanite]
